Experimental data as given in DBAASP.
Converted amounts (≈) assume the structure as drawn.

How the values were obtained:
Experiment in all cases: ≥ marks a high value that may be exact or a test limit, other limits are often not marked, values filed in µg/mL are converted to µM
[1] = tested on: Pseudomonas aeruginosa CICC 11411
[2] = tested on: Pseudomonas aeruginosa ATCC 27853
[3] = tested on: Pseudomonas aeruginosa 25349
[4] = tested on: Staphylococcus aureus ATCC 29213
[5] = tested on: Pseudomonas aeruginosa CICC 11431
[6] = tested on: Escherichia coli ATCC 25922
[7] = tested on: Pseudomonas aeruginosa CICC 21625
[8] = tested on: Pseudomonas aeruginosa CICC 10419
[9] = tested on: Pseudomonas aeruginosa CICC 11421
[10] = tested on: Pseudomonas aeruginosa CICC 21630
[11] = tested on: Pseudomonas aeruginosa 21328
Candida tropicalis = tested on: Candida tropicalis
Staphylococcus aureus = tested on: Staphylococcus aureus
Pseudomonas aeruginosa = tested on: Pseudomonas aeruginosa
Escherichia coli = tested on: Escherichia coli
Vibrio alginolyticus = tested on: Vibrio alginolyticus
[12] = tested on: Corynebacterium glutamicum
Aeromonas hydrophila = tested on: Aeromonas hydrophila
[13] = tested on: Staphylococcus epidermidis
Cryptococcus neoformans = tested on: Cryptococcus neoformans
Vibrio parahaemolyticus = tested on: Vibrio parahaemolyticus
Bacillus cereus = tested on: Bacillus cereus
Candida albicans = tested on: Candida albicans
Pasteurella multocida = tested on: Pasteurella multocida
[14] = tested on: Corynebacterium pseudotuberculosis ATCC 19410
[15] = tested on: Salmonella enterica subsp. arizonae
[16] = tested on: Pseudomonas aeruginosa PAO1
[17] = tested on: Mannheimia haemolytica Serovar 1
[18] = tested on: Mannheimia haemolytica Serovar 2
Aspergillus fumigatus = tested on: Aspergillus fumigatus
[19] = tested on: Mannheimia haemolytica Serovar 6
Klebsiella pneumoniae = tested on: Klebsiella pneumoniae
Bibersteinia trehalosi = tested on: Bibersteinia trehalosi
Escherichia coli C25 = tested on: Escherichia coli C25
[20] = tested on: Staphylococcus aureus ATCC 25923
[21] = tested on: Staphylococcus epidermidis KCTC 1917
[22] = tested on: Staphylococcus aureus CCARM 3125
[23] = tested on: Pseudomonas aeruginosa 4007
[24] = tested on: Staphylococcus aureus 3518
[25] = tested on: Pseudomonas aeruginosa 3241
[26] = tested on: Pseudomonas aeruginosa CCARM 2075
[27] = tested on: Pseudomonas aeruginosa ATCC 15692
[28] = tested on: Staphylococcus aureus CCARM 3709
[29] = tested on: Pseudomonas aeruginosa CCARM 2073
[30] = tested on: Listeria monocytogenes KCTC 19111
[31] = tested on: Salmonella typhimurium KCTC 1926
[32] = tested on: Staphylococcus aureus 3399

Structure (SMILES): C[C@H](N)C(=O)N[C@@H](CCCN=C(N)N)C(=O)N[C@@H](CCCN=C(N)N)C(=O)N[C@@H](C)C(=O)N[C@@H](CCCN=C(N)N)C(=O)N[C@@H](CCCN=C(N)N)C(=O)N[C@@H](CCCN=C(N)N)C(=O)N[C@@H](Cc1c[nH]c2ccccc12)C(=O)N[C@@H](CCCN=C(N)N)C(=O)N[C@@H](CCCN=C(N)N)C(=O)N[C@@H](CCCN=C(N)N)C(=O)N[C@@H](C)C(=O)N[C@@H](CCCN=C(N)N)C(=O)N[C@@H](CCCN=C(N)N)C(=O)N[C@@H](C)C(N)=O [ARRARRRWRRRARRA]
- MIC [1]: ≥ 125 µM
- MIC [2]: 62.4 µM (≈ 128 µg/mL)
- MIC [3]: 15.6 µM (≈ 32 µg/mL)
- MIC [4]: 31.2 µM (≈ 64 µg/mL)
- MIC [5]: ≥ 125 µM
- MIC [6]: 31.2 µM (≈ 64 µg/mL)
- MIC [7]: ≥ 125 µM
- MIC [8]: ≥ 125 µM
- MIC [9]: ≥ 125 µM
- MIC [10]: ≥ 125 µM
- MIC [11]: ≥ 125 µM

Structure (SMILES): CSCC[C@@H]1NC(=O)[C@H](CC(C)C)NC(=O)[C@H](CCCNC(=N)N)NC(=O)[C@H](CO)NC(=O)[C@@H]2CSSC[C@@H]3NC(=O)[C@H](CO)NC(=O)CNC(=O)[C@H]([C@@H](C)O)NC(=O)[C@H](CSSC[C@H](N)C(=O)N[C@@H](CCCCN)C(=O)NCC(=O)N[C@@H](CCCCN)C(=O)NCC(=O)N[C@@H](C)C(=O)N[C@@H](CCCCN)C(=O)N2)NC(=O)[C@H](CSSC[C@@H](C(N)=O)NC(=O)[C@H](CCCCN)NC(=O)CNC(=O)[C@H](CO)NC(=O)[C@H](CCCNC(=N)N)NC3=O)NC(=O)[C@H](CC(=O)O)NC(=O)[C@H](Cc2ccc(O)cc2)NC1=O [CKGKGAKCSRLMYDCCTGSCRSGKC]
- MIC (Candida tropicalis): ≥ 39.8 µM
- MIC (Staphylococcus aureus): > 500 µM
- MIC (Pseudomonas aeruginosa): > 500 µM
- MIC (Escherichia coli): > 500 µM

Structure (SMILES): CC[C@H](C)[C@H](NC(=O)[C@H](C)NC(=O)CNC(=O)[C@@H](NC(=O)[C@@H](NC(=O)[C@H](Cc1cnc[nH]1)NC(=O)[C@H](CCCN=C(N)N)NC(=O)[C@H](Cc1ccccc1)NC(=O)[C@@H](N)Cc1ccccc1)[C@@H](C)CC)C(C)C)C(=O)N[C@@H](CO)C(=O)N[C@@H](CCCN=C(N)N)C(=O)N[C@H](C(=O)N[C@@H](Cc1ccccc1)C(=O)NCC(=O)N[C@@H](CCC(N)=O)C(=O)N[C@@H](CCCCN)C(=O)N[C@@H](CCC(N)=O)C(=O)N[C@@H](CCCN=C(N)N)C(=O)N[C@@H](CC(=O)O)C(=O)N[C@@H](CCSC)C(=O)N[C@@H](C)C(=O)N[C@@H](CC(=O)O)C(=O)O)[C@@H](C)CC [FFRHIVGAISRIFGQKQRDMAD]
- MIC (Vibrio alginolyticus): ≥ 50 µM
- MIC [12]: 2.21 µM (≈ 5.73 µg/mL)
- MIC (Aeromonas hydrophila): ≥ 50 µM
- MIC (Staphylococcus aureus): 4.42 µM (≈ 11.5 µg/mL)
- MIC (Pseudomonas aeruginosa): 35.4 µM (≈ 91.7 µg/mL)
- MIC [13]: 17.7 µM (≈ 45.8 µg/mL)
- MIC (Cryptococcus neoformans): 2.21 µM (≈ 5.73 µg/mL)
- MIC (Escherichia coli): 17.7 µM (≈ 45.8 µg/mL)
- MIC (Vibrio parahaemolyticus): ≥ 50 µM
- MIC (Bacillus cereus): 17.7 µM (≈ 45.8 µg/mL)
- MIC (Candida albicans): 17.7 µM (≈ 45.8 µg/mL)

Structure (SMILES): CC[C@H](C)[C@H](N)C(=O)N[C@@H](CCCN=C(N)N)C(=O)N[C@@H](CCCN=C(N)N)C(=O)N[C@H](C(=O)N[C@H](C(=O)N[C@@H](CCCN=C(N)N)C(=O)N[C@@H](CCCCN)C(=O)N[C@H](C(=O)N[C@H](C(=O)N[C@@H](Cc1cnc[nH]1)C(=O)N[C@H](C(=O)N[C@H](C(=O)N[C@@H](CCCCN)C(=O)N[C@@H](CCCCN)C(=O)O)[C@@H](C)CC)[C@@H](C)CC)[C@@H](C)CC)[C@@H](C)CC)[C@@H](C)CC)[C@@H](C)CC [IRRIIRKIIHIIKK]
- MIC (Pasteurella multocida): 8.33 µM (≈ 15 µg/mL)
- MIC [14]: 11.1 µM (≈ 20 µg/mL)
- MIC [15]: 11.1 µM (≈ 20 µg/mL)
- MIC (Staphylococcus aureus): > 11.1 µM
- MIC [16]: 2.78 µM (≈ 5 µg/mL)
- MIC [17]: 5.55 µM (≈ 10 µg/mL)
- MIC [18]: 2.33 µM (≈ 4.2 µg/mL)
- MIC (Aspergillus fumigatus): 22.2 µM (≈ 40 µg/mL)
- MIC [19]: 3.72 µM (≈ 6.7 µg/mL)
- MIC (Klebsiella pneumoniae): > 11.1 µM
- MIC (Bibersteinia trehalosi): 11.1 µM (≈ 20 µg/mL)

Structure (SMILES): CC[C@H](C)[C@H](NC(=O)CNC(=O)[C@H](CCCCN)NC(=O)[C@H](Cc1ccc(O)cc1)NC(=O)[C@@H](NC(=O)[C@H](CCCCN)NC(=O)[C@H](Cc1ccccc1)NC(=O)[C@H](Cc1c[nH]c2ccccc12)NC(=O)[C@@H](N)CCCCN)C(C)C)C(=O)N[C@@H](Cc1ccc(O)cc1)C(=O)N[C@@H](CCCCN)C(=O)N[C@@H](CCCCN)C(=O)N[C@@H](CCCCN)C(N)=O [KWFKVYKGIYKKK]
- MIC (Escherichia coli C25): 8.2 µM (≈ 14.1 µg/mL)
- MIC [20]: 33 µM (≈ 56.6 µg/mL)

Structure (SMILES): NCCCC[C@H](NC(=O)[C@H](Cc1ccc(O)cc1)NC(=O)[C@H](Cc1c[nH]c2ccccc12)NC(=O)[C@H](CCCCN)NC(=O)[C@H](CCCCN)NC(=O)[C@H](Cc1ccc(O)cc1)NC(=O)[C@H](Cc1c[nH]c2ccccc12)NC(=O)[C@H](CCCCN)NC(=O)[C@H](CCCCN)NC(=O)[C@H](Cc1ccc(O)cc1)NC(=O)[C@H](Cc1c[nH]c2ccccc12)NC(=O)[C@@H](N)CCCCN)C(N)=O [KWYKKWYKKWYK]
- MIC [21]: 2 µM (≈ 3.67 µg/mL)
- MIC [22]: 4 µM (≈ 7.34 µg/mL)
- MIC [23]: 4 µM (≈ 7.34 µg/mL)
- MIC [20]: 4 µM (≈ 7.34 µg/mL)
- MIC [24]: 2 µM (≈ 3.67 µg/mL)
- MIC [25]: 2 µM (≈ 3.67 µg/mL)
- MIC [26]: 2 µM (≈ 3.67 µg/mL)
- MIC [27]: 2 µM (≈ 3.67 µg/mL)
- MIC [28]: 2 µM (≈ 3.67 µg/mL)
- MIC [6]: 2 µM (≈ 3.67 µg/mL)
- MIC [29]: 2 µM (≈ 3.67 µg/mL)
- MIC [30]: 2 µM (≈ 3.67 µg/mL)
- MIC [31]: 2 µM (≈ 3.67 µg/mL)
- MIC [32]: 4 µM (≈ 7.34 µg/mL)
